Measurements from US8609638B2, “Enzyme inhibiting compounds and methods” (priority 2009, dated 2013).
pIC50, pKi: −log10 of the molar value. Like-named read-outs stand apart in the source and are kept apart here.

Target: T1, IspH (LytB), E-4-hydroxy-3-methyl-but-2-enyl diphosphate reductase (Aquifex aeolicus, UniProt O67625)
T1 construct: inferred from Ni-NTA purification with imidazole elution; made in house; host or cells: E. coli BL-21(DE3)
Assay: biochemical
Parameters: species or system A. aeolicus
Protocol: A. aeolicus IspH Protein Purification. BL-21(DE3) cells expressing IspH from A. aeolicus were grown in LB media supplemented with […] ampicillin at 37° C. until the OD600 reached 0.6. Cells were then induced with 200 μg/L anhydrotetracycline and then grown at 20° C. for 15 hours. Cells were harvested by centrifugation (9000 rpm, 8 min, 4° C.) and kept at −80° C. until use. Cell pellets were resuspended and lysed in B-PER (Thermo Scientific, Rockford, Ill.) protein extraction reagent for 1 hour at 4° C. and then centrifuged at […] at 4° C. for 15 minutes. The supernatant was applied to a Ni-NTA column equilibrated with 5 mM imidazole in pH 8.0 buffer containing 50 mM Tris HCl and 150 mM NaCl. After washing with 20 mM imidazole, protein was eluted with 100 mM imidazole. Fractions were collected and dialyzed in pH 8.0 buffer containing 50 mM Tris HCl, 150 mM NaCl, 5% glycerol, and 1 mM DTT, four times. The purified protein was flash-frozen in liquid nitrogen and stored at −80° C. until use.
E. coli IspH Protein Purification. BL21 DE3 (Invitrogen) cells harboring an E. coli IspH construct were grown in LB media at 37° C. until the OD600 reached 0.6. Induction was performed with 200 ng/mL anhydrotetracycline at 20° C. for 15 hours. Cells were harvested by centrifugation at 9000 rpm for 8 min and stored at −80° C. Cell pellets were resuspended and lysed in B-PER protein extraction reagent for about 1 hour at 4° C., and then the lysate was centrifuged at […] for 30 minutes. The supernatant was collected and loaded onto an IBA Strep-tag column equilibrated with buffer W (100 mM Tris.HCl, 150 mM NaCl, pH 8.0). After washing with buffer W, protein was eluted using buffer E (buffer W containing 2.5 mM desthiobiotin). Fractions were collected and dialyzed in pH 8.0 buffer containing 50 mM Tris.HCl, 150 mM NaCl, 5% glycerol, and 1 mM DTT, twice. The purified protein was flashfrozen in liquid nitrogen and stored at −80° C. until use.
Protein Reconstitution. […] Before reconstitution, protein was transferred into a Coy vinyl anaerobic chamber after being degassed on a Schlenk line. The following steps were performed inside the anaerobic chamber with an oxygen level <2 ppm. In a typical reconstitution experiment, 10 mM DTT and ˜0.5 mg of elemental sulfur were added to 3 mL of 0.6 mM protein solution in a pH 8.0 buffer containing 50 mM Tris HCl, 150 mM NaCl, and 5% glycerol. After 1.5 hours under stirring, FeCl3 was slowly added from a 30 mM stock solution to 6 equiv. After 3 hours, an aliquot of the solution was centrifuged and a UV-vis spectrum recorded. If the A410 nm/A280 nm ratio was ≧0.38, the protein was then desalted by passing through a PD10 column. If the ratio was <0.38, more DTT, elemental sulfur, and FeCl3 were added, and the sample was incubated with stirring (for typically ˜2 h) until the 410 nm/280 nm absorption ratio was ˜0.38. The reconstituted protein was then concentrated by ultrafiltration, and the protein concentration was determined by using a Bio-Rad (Hercules, Calif.) protein assay kit.
IspH inhibition assays. Assays were performed anaerobically at room temperature according to the methods of Altincicek et. al. (FEBS Lett. (2002) 532: 437-440) with the following modifications. […]
For enzyme assays, various amounts of the test inhibitor ([…]) were added and the reactions were monitored at 732 nm. […]

T1 sequence (O67625 whole entry): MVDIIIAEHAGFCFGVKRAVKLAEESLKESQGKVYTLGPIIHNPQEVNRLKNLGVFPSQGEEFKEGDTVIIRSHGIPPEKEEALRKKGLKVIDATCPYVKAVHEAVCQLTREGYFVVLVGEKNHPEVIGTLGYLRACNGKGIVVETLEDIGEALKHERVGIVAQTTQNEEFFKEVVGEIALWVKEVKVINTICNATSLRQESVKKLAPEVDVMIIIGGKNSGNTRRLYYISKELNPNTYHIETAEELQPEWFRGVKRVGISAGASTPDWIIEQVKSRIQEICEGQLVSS

O=C(O)CCCCOP(=O)(O)OP(=O)(O)O [BPH-988, 5-Pentanoic acid diphosphate]
pKi (Ki): 4.29

C#CCOP(=O)(O)OP(=O)(O)O [BPH-1061, Prop-2-ynyl diphosphate]
pIC50 (IspH inhibition, inhibitor incubated 10 minutes before 34 μM HMBPP): 5.17

C#CCCOP(=O)(O)OP(=O)(O)O [BPH-1077, But-3-ynyl diphosphate]
pKi (IspH inhibition, Ki deduced from IC50 by Cheng-Prusoff equation, read-out: Ki): ~6.70

C#CC[PH](=O)CP(=O)(O)O (centres unmarked) [BPH-1084, [[(Prop-2-ynyl)phosphinyl]methyl]phosphonic acid]
activity in IspH inhibition (in words) (relative to parent or comparator compounds): decreased activity

C#CCO [Propargyl alcohol, reference compound]
pKi (IspH inhibition, read-out: Ki): < 2.00
